Data as given in the supplement of paper PMC11451515.

Tested on: SEM cells
Test: cell viability relative to DMSO control; higher = less cytotoxic
Settings: 48 h
Summary of the method: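 Library compounds in DMSO were pin-dosed in an 11-point threefold series (47 μM to 0.79 nM) onto leukemia cells in 1536-well plates (5 μl). Plates held 500 cells/well of NOMO1 or SEM or 1000 cells/well of P12-Ichikawa, each adapted for at least four passages in each medium. Luminescence was read with CellTiter-Glo One after 48 h at 37°C. Viability means the per-plate percentage relative to DMSO wells, using cell-free wells as background.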

[1] = HPLM + 10% dialyzed FBS, 0.000781 µM
[2] = HPLM + 10% dialyzed FBS, 0.00234 µM
[3] = HPLM + 10% dialyzed FBS, 0.00702 µM
[4] = HPLM + 10% dialyzed FBS, 0.0211 µM
[5] = HPLM + 10% dialyzed FBS, 0.0632 µM
[6] = HPLM + 10% dialyzed FBS, 0.19 µM
[7] = HPLM + 10% dialyzed FBS, 0.569 µM
[8] = HPLM + 10% dialyzed FBS, 1.71 µM
[9] = HPLM + 10% dialyzed FBS, 5.12 µM
[10] = HPLM + 10% dialyzed FBS, 15.4 µM
[11] = HPLM + 10% dialyzed FBS, 46.1 µM
[12] = RPMI 5 mM glucose + 10% FBS, 0.000781 µM
[13] = RPMI 5 mM glucose + 10% FBS, 0.00234 µM
[14] = RPMI 5 mM glucose + 10% FBS, 0.00702 µM
[15] = RPMI 5 mM glucose + 10% FBS, 0.0211 µM
[16] = RPMI 5 mM glucose + 10% FBS, 0.0632 µM
[17] = RPMI 5 mM glucose + 10% FBS, 0.19 µM
[18] = RPMI 5 mM glucose + 10% FBS, 0.569 µM
[19] = RPMI 5 mM glucose + 10% FBS, 1.71 µM
[20] = RPMI 5 mM glucose + 10% FBS, 5.12 µM
[21] = RPMI 5 mM glucose + 10% FBS, 15.4 µM
[22] = RPMI 5 mM glucose + 10% FBS, 46.1 µM
[23] = RPMI 5 mM glucose + 10% dialyzed FBS, 0.000781 µM
[24] = RPMI 5 mM glucose + 10% dialyzed FBS, 0.00234 µM
[25] = RPMI 5 mM glucose + 10% dialyzed FBS, 0.00702 µM
[26] = RPMI 5 mM glucose + 10% dialyzed FBS, 0.0211 µM
[27] = RPMI 5 mM glucose + 10% dialyzed FBS, 0.0632 µM
[28] = RPMI 5 mM glucose + 10% dialyzed FBS, 0.19 µM
[29] = RPMI 5 mM glucose + 10% dialyzed FBS, 0.569 µM
[30] = RPMI 5 mM glucose + 10% dialyzed FBS, 1.71 µM
[31] = RPMI 5 mM glucose + 10% dialyzed FBS, 5.12 µM
[32] = RPMI 5 mM glucose + 10% dialyzed FBS, 15.4 µM
[33] = RPMI 5 mM glucose + 10% dialyzed FBS, 46.1 µM

Compound | cell viability [1] | cell viability [2] | cell viability [3] | cell viability [4] | cell viability [5] | cell viability [6] | cell viability [7] | cell viability [8] | cell viability [9] | cell viability [10] | cell viability [11] | cell viability [12] | cell viability [13] | cell viability [14] | cell viability [15] | cell viability [16] | cell viability [17] | cell viability [18] | cell viability [19] | cell viability [20] | cell viability [21] | cell viability [22] | cell viability [23] | cell viability [24] | cell viability [25] | cell viability [26] | cell viability [27] | cell viability [28] | cell viability [29] | cell viability [30] | cell viability [31] | cell viability [32] | cell viability [33]
C[C@H]1[C@H](NC(=O)/C(=N/OC(C)(C)C(=O)O)c2csc(N)n2)C(=O)N1[S+](=O)([O-])O | 89.9% | 102% | 100% | 99.3% | 95.2% | 103% | 100% | 93.1% | 104% | 107% | 86.1% | 98.7% | 103% | 106% | 106% | 107% | 88.3% | 104% | 110% | 104% | 101% | 79.7% | 106% | 107% | 121% | 113% | 110% | 129% | 114% | 113% | 105% | 64.8% | 88.2%
CC(C)[C@@H](N(CCCN)C(=O)C1=CC=C(C)C=C1)C/2=N/C3=CC(=CC=C3C(=O)N2CC4=CC=CC=C4)Cl | 84.5% | 21% | 20.5% | 19.5% | 16% | 20.4% | 19.5% | 20.2% | 21.9% | 21.2% | 21.9% | 103% | 16.5% | 14.8% | 14% | 15.9% | 15% | 12.3% | 13.7% | 16.8% | 16.2% | 11.6% | 80% | 19.8% | 16.2% | 15.7% | 16.4% | 14.4% | 17.5% | 14.8% | 16.4% | 17.2% | 13.2%
CCc1cncnc1N1CCN(Cc2nc3cc(C(F)(F)F)ccc3[nH]2)CC1 | 107% | 104% | 111% | 101% | 106% | 105% | 105% | 97.1% | 88.2% | 62.4% | 35.5% | 93.8% | 109% | 106% | 99.9% | 101% | 108% | 96.2% | 94.7% | 84.3% | 62% | 23.7% | 73.3% | 112% | 111% | 109% | 103% | 105% | 81.2% | 98.2% | 84.4% | 60.8% | 22.1%
OC1=CC=C(C=C1)\C2=C\OC3=C(C=CC(=C3)O)C2=O | 102% | 96.6% | 103% | 109% | 114% | 102% | 104% | 102% | 108% | 101% | 94.5% | 100% | 89.9% | 109% | 104% | 107% | 96.5% | 99.4% | 104% | 112% | 96.7% | 104% | 96.7% | 97.1% | 109% | 118% | 101% | 101% | 107% | 112% | 110% | 101% | 104%
COc1cc2c(cc1-c1c(C)noc1C)ncc1[nH]c(=O)n([C@H](C)c3ccccn3)c12 |  |  |  |  |  |  |  |  |  |  |  | 117% | 106% | 140% | 120% | 119% | 114% | 102% | 65.4% | 8.34% | 6.3% | 3.15% | 101% | 94.8% | 110% | 119% | 101% | 96.1% | 76.5% | 49.7% | 6.42% | 6.4% | 3.1%
CN(C)c1ccc(O)c2c1C[C@H]1C[C@H]3[C@H](N(C)C)C(O)=C(C(N)=O)C(=O)[C@@]3(O)C(O)=C1C2=O | 97.4% | 98.3% | 93.9% | 108% | 107% | 103% | 91.9% | 104% | 104% | 107% | 118% | 98.3% | 103% | 93.8% | 96.4% | 114% | 108% | 105% | 110% | 103% | 93.5% | 106% | 106% | 119% | 106% | 106% | 105% | 106% | 115% | 122% | 114% | 107% | 104%
CN[S+](=O)([O-])Cc1ccc2[nH]cc(CCN(C)C)c2c1 | 95.3% | 104% | 102% | 111% | 112% | 118% | 113% | 119% | 118% | 129% | 118% | 89.2% | 114% | 104% | 114% | 107% | 119% | 121% | 115% | 126% | 128% | 128% | 93.4% | 86% | 87% | 91.8% | 94.1% | 102% | 95.7% | 106% | 94.8% | 111% | 92.9%
CC1(C)CC(=O)c2c(C(F)(F)F)nn(-c3ccc(C(N)=O)c(NC4CCC(O)CC4)c3)c2C1 (configuration not stated) | 93.6% | 84.7% | 88.6% | 98% | 93.5% | 36.8% | 20.9% | 18.4% | 19.2% | 16.9% | 77.6% | 105% | 97.5% | 84.4% | 84.2% | 111% | 37.1% | 15.7% | 19.4% | 16.1% | 17.4% | 99.9% | 83.7% | 102% | 66.3% | 63.5% | 76.6% | 34.4% | 12.8% | 20.6% | 17.8% | 18.1% | 84.3%
CC(C)n1c(/C=C/[C@H](O)C[C@H](O)CC(=O)O)c(-c2ccc(F)cc2)c2ccccc21 | 102% | 99.3% | 123% | 107% | 125% | 129% | 105% | 99.2% | 85% | 83.4% | 37.9% | 103% | 105% | 126% | 107% | 116% | 113% | 106% | 103% | 95.5% | 60.7% | 19% | 92.9% | 90.7% | 129% | 112% | 126% | 129% | 129% | 116% | 101% | 83.8% | 26.8%
COc1ccc(CC2NCCc3cc(OC)c(OC)cc32)cc1OC (configuration not stated) | 89.6% | 93% | 86.6% | 85.3% | 65.7% | 94.2% | 93.3% | 93.7% | 88.4% | 79.5% | 15.4% | 85.2% | 84% | 82.2% | 97.4% | 82.4% | 99.1% | 88.5% | 93.5% | 97.5% | 47% | 12.8% | 85.9% | 78.6% | 90.7% | 87.3% | 71.4% | 98.2% | 105% | 99.9% | 95.2% | 66.8% | 19.3%
CC[C@H](CC[C@@H](C)[C@H]1CC[C@H]2[C@@H]3C\C=C/4C[C@@H](O)CC[C@]4(C)[C@H]3CC[C@]12C)C(C)C | 119% | 130% | 123% | 139% | 129% | 128% | 114% | 116% | 116% | 122% | 95.8% | 117% | 114% | 126% | 119% | 131% | 116% | 124% | 110% | 115% | 114% | 92.3% | 124% | 144% | 122% | 115% | 147% | 126% | 125% | 129% | 138% | 121% | 94.6%
